Experiments:
Nucleic Acid = test: The compound was evaluated for binding affinity towards calf thymus DNA.; type: nucleic-acid assay; conditions: Bos taurus
J774.A1 [1] = test: Inhibition of TNF-alpha production by J774.A1 cells stimulated for 18 hr with Escherichia coli at 0.9 uM, by ELISA assay; effectively inhibited; type: functional, cell-based; conditions: Mus musculus
J774.A1 [2] = test: Inhibition of NO production by J774.A1 cells stimulated for 18 hr with Escherichia coli at 0.5 uM, measured as nitrite using the Griess assay; effectively inhibited; type: functional, cell-based; conditions: Mus musculus

CCCCCCCCCCCCCCCC(=O)NCCCNCCCNCCCCNCCCN
C50 (Nucleic Acid): 0.9 µM | inhibition (J774.A1 [1]): effectively inhibited | inhibition (J774.A1 [2]): effectively inhibited

CCCCCCCC/C=C/CCCCCCCC(=O)NCCCNCCCCNCCCN
C50 (Nucleic Acid): 1.29 µM

CCCCCCCCCCCCCCCC(=O)NCCCNCCCCNCCCN
C50 (Nucleic Acid): 1.35 µM

CCCCCCCCCCCCCCCCCC(=O)NCCCNCCCCNCCCN
C50 (Nucleic Acid): 1.27 µM

Reference: ChEMBL document CHEMBL1133065, “Lipopolyamines incorporating the tetraamine spermine, bound to an alkyl chain, sequester bacterial lipopolysaccharide” (Bioorg Med Chem Lett, 2000)
